Converted amounts (≈) assume the structure as drawn. Read-outs that look alike come from different tables or passages of the source.
Assays:
[1] = tested on: Aspergillus niger; assay: Minimum inhibitory concentration, YAG medium; format: cell-based; conditions: banded MIC grade; for MIC: Aspergillus niger, YAG media
In short: (§1)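 Twofold aqueous dilution series, prepared from a DMSO stock (5 mg/mL), were inoculated with Aspergillus spp. spores; incubation lasted 24 hrs at 35° C before OD 485 nm readings.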

[2] = tested on: Aspergillus terreus; assay: Minimum inhibitory concentration, YAG medium; format: cell-based; conditions: banded MIC grade; for MIC: Aspergillus terreus, YAG media
In short: as §1

[3] = tested on: Aspergillus flavus; assay: Minimum inhibitory concentration, YAG medium; format: cell-based; conditions: banded MIC grade; for MIC: Aspergillus flavus, YAG media
In short: as §1

[4] = tested on: Aspergillus fumigatus; assay: Minimum inhibitory concentration, YAG medium; format: cell-based; conditions: banded MIC grade; for MIC: Aspergillus fumigatus, YAG media
In short: (§2)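 Testing uses spores harvested after 5 days on Sabouraud agar, grown 24 hrs at 35° C in glucose/ammonium chloride/yeast extract (YAG) medium against twofold drug dilutions. Optical density at 485 nm defines MIC as >70% growth reduction compared with drug-free wells.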

[5] = tested on: A. terreus 49; assay: Minimum inhibitory concentration, YAG medium; format: cell-based, Aspergillus terreus; conditions: banded MIC grade; for MIC: Aspergillus terreus, 49, YAG media
In short: as §1

[6] = tested on: C. parapsilosis; assay: Minimum inhibitory concentration, RPMI medium; format: cell-based; conditions: banded MIC grade; for MIC: Lodderomyces parapsilosis, RPMI media
In short: (§3)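 Incubated at 35° C for 24-48 hrs in RPMI 1640 with twofold water dilutions of compound (from 5 mg/mL stock in DMSO); absorbance at 485 nm indicated growth.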

[7] = tested on: C. albicans; assay: Minimum inhibitory concentration, RPMI medium; format: cell-based; conditions: banded MIC grade; for MIC: Candida albicans, RPMI media
In short: as §3

[8] = tested on: C. tropicalis; assay: Minimum inhibitory concentration, RPMI medium; format: cell-based; conditions: banded MIC grade; for MIC: Candida tropicalis, RPMI media
In short: as §3

[9] = tested on: A. fumigatus 210; assay: Minimum inhibitory concentration, YAG medium; format: cell-based, Aspergillus fumigatus; conditions: banded MIC grade; for MIC: Aspergillus fumigatus, 210, YAG media
In short: as §2

[10] = read-out: MIC grade C. PARAPSILOSIS
[11] = read-out: MIC grade, C. PARAPSILOSIS, RPMI media
[12] = read-out: MIC grade C. ALBICANS
[13] = read-out: MIC grade, C. ALBICANS, RPMI media

| Compound | MIC grade, A. NIGER, YAG media [1] | MIC grade, A. TERREUS, YAG media [2] | MIC grade, A. FLAVUS, YAG media [3] | MIC grade, A. FUMIGATUS, YAG media [4] | MIC grade, A. TERREUS 49, YAG media [5] | MIC grade, C. PARAPSILOSIS, RPMI media [6] | MIC grade, C. ALBICANS, RPMI media [7] | MIC grade, C. TROPICALIS, RPMI media [8] | MIC grade, A. FUMIGATUS 210, YAG media [9] | MIC [1] | MIC [2] | MIC [3] | MIC [4] | MIC [5] | MIC [6, 10] | MIC [6, 11] | MIC [7, 12] | MIC [7, 13] | MIC [8] | MIC [9] |
| --- | --- | --- | --- | --- | --- | --- | --- | --- | --- | --- | --- | --- | --- | --- | --- | --- | --- | --- | --- | --- |
| COCCCCCCC1=NN=C(N)SC1 | 4 (4: <0.2 mg/L) | 4 (4: <0.2 mg/L) | 4 (4: <0.2 mg/L) | 4 (4: <0.2 mg/L) | 4 (4: <0.2 mg/L) | 4 (4: <1 mg/L) | 4 (4: <1 mg/L) | 3 (3: 1-5 mg/L) | 4 (4: <0.2 mg/L) | – | – | – | – | – | – | – | – | – | – | – |
| CCOC(=O)c1cccc(C2=NN=C(N)SC2)c1 | 1 (1: ≥5 mg/L) | 1 (1: ≥5 mg/L) | 1 (1: ≥5 mg/L) | 1 (1: ≥5 mg/L) | 1 (1: ≥5 mg/L) | 1 (1: ≥20 mg/L) | 1 (1: ≥20 mg/L) | 1 (1: ≥20 mg/L) | 1 (1: ≥5 mg/L) | – | – | – | – | – | – | – | – | – | – | – |
| Cc1ccc(C2=CSC(N)=NN2C)cc1 [4-methyl-5-(p-tolyl)-1,3,4-thiadiazin-2-amine] | – | – | – | – | – | – | – | – | – | 0.2 to 1 µg/mL (≈ 0.912 to 4.56 µM) | < 0.2 µg/mL | 0.2 to 1 µg/mL (≈ 0.912 to 4.56 µM) | < 0.2 µg/mL | < 0.2 µg/mL | ≥ 20 µg/mL | 1 to 5 µg/mL (≈ 4.56 to 22.8 µM) | < 1 µg/mL | 5 to 20 µg/mL (≈ 22.8 to 91.2 µM) | ≥ 20 µg/mL | < 0.2 µg/mL |
| COCCCCOCCC1=NN=C(N)SC1 | 3 (3: 0.2-1 mg/L) | 3 (3: 0.2-1 mg/L) | 3 (3: 0.2-1 mg/L) | 3 (3: 0.2-1 mg/L) | 3 (3: 0.2-1 mg/L) | 3 (3: 1-5 mg/L) | 3 (3: 1-5 mg/L) | 2 (2: 5-20 mg/L) | 3 (3: 0.2-1 mg/L) | – | – | – | – | – | – | – | – | – | – | – |
| CCCC(C)OCCC1=NN=C(N)SC1 (stereo not drawn) | 4 (4: <0.2 mg/L) | 3 (3: 0.2-1 mg/L) | 2 (2: 1-5 mg/L) | 2 (2: 1-5 mg/L) | 2 (2: 1-5 mg/L) | 3 (3: 1-5 mg/L) | 2 (2: 5-20 mg/L) | 1 (1: ≥20 mg/L) | 3 (3: 0.2-1 mg/L) | – | – | – | – | – | – | – | – | – | – | – |
| NC1=NN=C(c2ccc3ccccc3c2)CS1 | 1 (1: ≥5 mg/L) | 1 (1: ≥5 mg/L) | 1 (1: ≥5 mg/L) | 2 (2: 1-5 mg/L) | 1 (1: ≥5 mg/L) | 1 (1: ≥20 mg/L) | 1 (1: ≥20 mg/L) | 1 (1: ≥20 mg/L) | 1 (1: ≥5 mg/L) | – | – | – | – | – | – | – | – | – | – | – |
| NC1=NN=C(c2cccc(Cl)c2)CS1 | 1 (1: ≥5 mg/L) | 1 (1: ≥5 mg/L) | 1 (1: ≥5 mg/L) | 1 (1: ≥5 mg/L) | 1 (1: ≥5 mg/L) | 1 (1: ≥20 mg/L) | 1 (1: ≥20 mg/L) | 1 (1: ≥20 mg/L) | 1 (1: ≥5 mg/L) | – | – | – | – | – | – | – | – | – | – | – |
| CC(C)c1ccc(C2=NN=C(N)SC2)cc1 | 1 (1: ≥5 mg/L) | 2 (2: 1-5 mg/L) | 1 (1: ≥5 mg/L) | 1 (1: ≥5 mg/L) | 2 (2: 1-5 mg/L) | 1 (1: ≥20 mg/L) | 1 (1: ≥20 mg/L) | 1 (1: ≥20 mg/L) | 1 (1: ≥5 mg/L) | – | – | – | – | – | – | – | – | – | – | – |
| COCCCCCN1N=C(N)SC=C1C [4-(5-methoxypentyl)-5-methyl-1,3,4-thiadiazin-2-amine] | – | – | – | – | – | – | – | – | – | ≥ 5 µg/mL | 1 to 5 µg/mL (≈ 4.36 to 21.8 µM) | 1 to 5 µg/mL (≈ 4.36 to 21.8 µM) | ≥ 5 µg/mL | 1 to 5 µg/mL (≈ 4.36 to 21.8 µM) | ≥ 20 µg/mL | 5 to 20 µg/mL (≈ 21.8 to 87.2 µM) | ≥ 20 µg/mL | ≥ 20 µg/mL | ≥ 20 µg/mL | 1 to 5 µg/mL (≈ 4.36 to 21.8 µM) |
| COCCCCCCCC1=NN=C(N)SC1 | 4 (4: <0.2 mg/L) | 4 (4: <0.2 mg/L) | 4 (4: <0.2 mg/L) | 4 (4: <0.2 mg/L) | 4 (4: <0.2 mg/L) | 4 (4: <1 mg/L) | 4 (4: <1 mg/L) | 4 (4: <1 mg/L) | 4 (4: <0.2 mg/L) | – | – | – | – | – | – | – | – | – | – | – |
| NC1=NN=C(CCCCCOCc2ccccc2)CS1 | 3 (3: 0.2-1 mg/L) | 3 (3: 0.2-1 mg/L) | 4 (4: <0.2 mg/L) | 4 (4: <0.2 mg/L) | 4 (4: <0.2 mg/L) | 4 (4: <1 mg/L) | 3 (3: 1-5 mg/L) | 3 (3: 1-5 mg/L) | 4 (4: <0.2 mg/L) | – | – | – | – | – | – | – | – | – | – | – |
| CCOC(=O)c1ccc(C2=CSC(N)=NN2C)cc1 [ethyl 4-(2-amino-4-methyl-1,3,4-thiadiazin-5-yl)benzoate] | – | – | – | – | – | – | – | – | – | 0.2 to 1 µg/mL (≈ 0.721 to 3.61 µM) | < 0.2 µg/mL | < 0.2 µg/mL | < 0.2 µg/mL | 0.2 to 1 µg/mL (≈ 0.721 to 3.61 µM) | < 1 µg/mL | < 1 µg/mL | < 1 µg/mL | 1 to 5 µg/mL (≈ 3.61 to 18 µM) | 1 to 5 µg/mL (≈ 3.61 to 18 µM) | < 0.2 µg/mL |
| NC1=NN=C(CCOC2CCCCC2)CS1 | 2 (2: 1-5 mg/L) | 2 (2: 1-5 mg/L) | 2 (2: 1-5 mg/L) | 2 (2: 1-5 mg/L) | 2 (2: 1-5 mg/L) | 2 (2: 5-20 mg/L) | 1 (1: ≥20 mg/L) | 1 (1: ≥20 mg/L) | 1 (1: ≥5 mg/L) | – | – | – | – | – | – | – | – | – | – | – |
| NC1=NN=C(COc2ccccc2)CS1 | 3 (3: 0.2-1 mg/L) | 3 (3: 0.2-1 mg/L) | 4 (4: <0.2 mg/L) | 4 (4: <0.2 mg/L) | 3 (3: 0.2-1 mg/L) | 4 (4: <1 mg/L) | 2 (2: 5-20 mg/L) | 2 (2: 5-20 mg/L) | 4 (4: <0.2 mg/L) | – | – | – | – | – | – | – | – | – | – | – |
